B1: NRG1β ligand: NRG-1β (R&D Systems), exogenous neuregulin-1β agonist of ErbB receptors (protein)
chain: TSHLVKCAEKEKTFCVNGGECFMVKDLSNPSRYLCKCPNEFTGDRCQNYVMASFYKHLGIEFMEAEELYQK

How the values were obtained:
Format in all cases: cell-based, human
[1] = tested on: cGATA6-EGFP-transduced hESC-CM cultures; assay: cGATA6-EGFP reporter: fraction of EGFP+ putative nodal cells; conditions: cGATA6-EGFP transduced hESC-CMs, ~50% transduction efficiency; control 15%
Method: Prior to lentiviral transduction, hESC-CMs were replated onto glass coverslips as described for electrophysiological studies and allowed to recover for 4-5 days. Cells were then exposed to cGATA6-EGFP lentivirus (at 5000 LPs/cell, added to their usual RPMI-B27 medium) for 12 hours. […] Transduced cell preparations were then used in either electrophysiological or immunocytochemical studies at 3-4 days post-transduction.
Dissociated hESC-CMs were cultured on glass cover slips, fixed, and immunostained as previously described (Laflamme et al., “Cardiomyocytes Derived from Human Embryonic Stem Cells in Pro-Survival Factors Enhance Function of Infarcted Rat Hearts,” Nat. Biotechnol. 25(9):1015-1024 (2007), McDevitt et al., “Proliferation of Cardiomyocytes Derived from Human Embryonic Stem Cells is Mediated Via the IGF/PI 3-Kinase/Akt Signaling Pathway,” J Mol Cell Cardiol. 39(6):865-873 (2005), Laflamme et al., “Formation of Human Myocardium in the Rat Heart from Human Embryonic Stem Cells,” Am J. Pathol. 167(3):663-671 (2005), and Minami et al., “Extracardiac Progenitor Cells Repopulate Most Major Cell Types in the Transplanted Human Heart,” Circulation 112(19):2951-2958 (2005), which are hereby incorporated by reference in their entirety). […] Each experimental condition was assayed in triplicate, and a minimum of 500 nuclei were counted per sample. […]

hESC-CM cultures [2] = assay: quantitative RT-PCR of cardiac subtype-specific genes; conditions: treated hESC-CMs vs control, normalized to GAPDH
Method: Total RNA was prepared by lysing cell preparations with the Qiagen RNEasy kit, followed by DNase treatment. After confirming the quality of the RNA using an Agilent Bioanalyzer 2100, it was reverse-transcribed into cDNA using the Superscript III first-strand cDNA synthesis kit (Invitrogen). Tables 2 and 3 list the primers used for semi-quantitative and quantitative RT-PCR reactions, respectively. All primer pairs were designed to be intron-spanning Quantitative real-time PCR reactions were performed using the SYBR green dye system and an Applied Biosystems 7900HT instrument. Cycling conditions were 10 minutes at 95° C., and 40 cycles of 30 seconds at 95° C., 30 seconds at 55° C., and 30 seconds at 72° C. mRNA levels were normalized using GAPDH as an internal control, and adult human heart cDNA was always run in parallel as a positive control.
In the preceding experiments, manipulation of NRG-1β/ErbB signaling changed the relative abundance of the two cardiac subtypes, as determined by both AP phenotyping and activation of the nodal-specific cGATA6-EGFP genetic reporter. To confirm these findings with an independent, molecular approach, quantitative RT-PCR was used to compare the expression of 18 subtype-specific genes in control, AG1478, and NRG-1β ligand-treated hESC-CM cultures (see Table 4). […] In sum, activation of NRG-1β/ErbB signaling increased the expression of genes associated with working cardiomyocytes, while its blockade with AG1478 increased the expression of genes associated with the nodal subtype.

hESC-CM cultures [3] = assay: action potential (AP) phenotyping of hESC-CMs under current clamp after manipulation of NRG-1β/ErbB signaling
Method: At 14 days following induction with activin A, hESC-CMs were dispersed using 0.1 U/ml of dispase (Invitrogen) with 63 U/ml DNase I (Invitrogen) and replated at low density onto 0.5% gelatin-coated glass coverslips. After a few days of additional culture, the spontaneously generated action potentials (APs) of the hESC-CMs were recorded using a HEKA EPC-10 amplifier (HEKA, Lambrecht, Germany), operated in current-clamp mode. Note that the EPC-10 has a true “voltage follower” circuit, similar to a classical microelectrode amplifier (Magistretti et al., “Modalities of Distortion of Physiological Voltage Signals by Patch-Clamp Amplifiers: a Modeling Study,” Biophys J. 74(2 Pt 1):831-842 (1998) and Magistretti et al., “Action Potentials Recorded with Patch-Clamp Amplifiers: Are They Genuine?” Trends Neurosci. 19(12):530-534 (1996), which are hereby incorporated by reference in their entirety). […] Patch pipettes with a resistance of 2-4 MΩ were used; cells with a series resistance of >10 MΩ were discarded. […] Action potential parameters were analyzed by an individual blinded to culture conditions, using Patchmaster (HEKA) and Igor Pro software. […]

[4] = tested on: Akt and ERK kinases in hESC-CM cultures; assay: Western blot analysis of Akt and Erk phosphorylation; conditions: hESC-CMs day 10 post-induction, 10 minutes, 10 or 100 ng/ml NRG-1β, with or without 25 μg/ml anti-NRG1β antibody
Method: For this, hESC-CMs (˜5×10^6 […] per well) were treated on day 10 post-induction with 0, 10, or 100 ng/ml NRG-1β (R&D Systems) in the presence or absence of 25 μg/ml anti-NRG1β neutralizing antibody (R&D Systems) for 10 minutes. After treatment, cells were rinsed twice with ice-cold PBS and lysed for 20 minutes on ice with 250 μl of extraction buffer (25 mM Tris-HCl (pH 7.4), 150 mM NaCl, 2 mM EDTA, 10 mM Na2SO4, and 1% Triton X-100 supplemented just prior to use with 50 mM NaF, 1 mM sodium orthovanadate, 1 mM phenylmethylsulfonyl fluoride, and a protease inhibitor cocktail (Sigma)). Lysates were collected with a cell scraper, placed in microcentrifuge tubes, vortexed for 3 minutes at 4° C., and then spun at 4° C. for 20 minutes at 12,000 g to discard cell debris. The resultant protein lysates were then denatured at 95° C. for 10 minutes and loaded (at 30 μg/lane) onto a denaturing 10% SDS/polyacrylamide gel, electrophoresed, and then transferred onto a PVDF membrane. The PVDF blot was blocked for 1 hour at room temperature in 1×TBST (150 mM NaCl, 10 mM Tris-HCl (pH 7.4), and 0.1% Tween) plus 5% nonfat milk, probed overnight with anti-phosphorylation Akt and anti-phosphorylation Erk1/2 antibodies (Cell Signaling), and then incubated with peroxidase-conjugated goat anti-mouse IgG antibody (Sigma). […]

Molecule | percentage of EGFP+ putative nodal cells [1] [%] | expression of HCN4 relative to control cells (hESC-CM cultures [2]) [fold] | expression of Tbx-3 (TBX3) relative to control cells (hESC-CM cultures [2]) [fold] | proportion of cells exhibiting a nodal-like AP phenotype (hESC-CM cultures [3]; differentiating hESC-CM cultures, control 21%) [%] | phosphorylation (activation) of Akt and ERK kinases [4] | phosphorylation (activation) of Akt and ERK kinases ([4]; listed as NRG-1β agonist) | expression of NPPA (atrial natriuretic factor, ANF) relative to controls (hESC-CM cultures [2]) [fold] | effect on fraction of nodal cells (AP phenotyping) (hESC-CM cultures [3]; exogenous NRG-1β 100 ng/ml, day 5 to 12 or continuously after day 5, versus control)
COc1cc2ncnc(Nc3cccc(Cl)c3)c2cc1OC [AG1478] | 25 | 2.0 | 2.6 | 52 |  |  |  | 
B1 |  |  |  |  | phosphorylated | activation of both kinases | 2.6 | a trend toward the opposite effect (i.e., a reduction in the fraction of nodal cells)

From US8815593B2, “Induction of human embryonic stem cell derived cardiac pacemaker or chamber-type cardiomyocytes by manipulation of neuregulin signaling” (University of Washington, priority 2008, dated 2014)
